According to patent US20110301239A1, “USE OF NOVEL LIPID MEDIATORS TO INHIBIT ANGIOGENESIS” (The Brigham and Women's Hospital, Inc., priority 2008, published 2011):

Columns and labels:
[1] = system: PMN infiltration; test: Peritonitis model, PMN infiltration; type: in vivo
[2] = system: VEGF-C; test: Real-time PCR of VEGF-C mRNA in suture-inflamed corneas; type: in vivo, BALB/c mice; conditions: 24 h and 72 h after suture placement, vs vehicle-treated group
Protocol: (§1) Six to eight-week-old male BALB/c (Taconic Farms, Germantown, N.Y.) mice were used in all experiments. All experimental protocols were approved by the Schepens Eye Research Institute Animal Care and Use Committee, and all animals were treated according to the Association for Research in Vision and Ophthalmology Statement for the Use of Animals in Ophthalmic and Vision Research. […]
(§2) BALB/c mice were randomized to receive RvD1, RvE1 or vehicle (normal saline) by subconjunctival injection in a masked fashion after suture or hydron pellet placement. […] The physical properties were monitored routinely via LC/MS/MS matching the reported biological and physical properties prior to analysis in present experiments. […]
(§3) A combined-method for total RNA isolation was employed, using Trizol (Invitrogen Corp., Carlsbad, Calif.) and RNeasy MinElute Spin Columns (Qiagen, Valencia, Calif.), as described previously.^21 Reverse transcription of total RNA was conducted using oligo(dT)20 primer and Superscript™ III Reverse Transcriptase (Invitrogen, Carlsbad, Calif.). […] The mean density of each band was measured by using NIH image J software. […]

[3] = system: VEGF-A; test: Real-time PCR of VEGF-A mRNA in suture-inflamed corneas; type: in vivo, BALB/c mice; conditions: 24 h and 72 h after suture placement, vs vehicle-treated group
Protocol: as §1, §2, §3

[4] = system: VEGFR-2; test: Real-time PCR of VEGFR-2 mRNA in suture-inflamed corneas; type: in vivo, BALB/c mice; conditions: 24 h and 72 h after suture placement, vs vehicle-treated group
Protocol: as §1, §2, §3

[5] = system: neutrophils; test: Neutrophil infiltration in suture-inflamed corneas (anti-neutrophil NIMP-R14 staining of cross-sections); type: in vivo, BALB/c mice; conditions: for neutrophils in inflamed cornea: 100 ng/10 μl subconjunctival at 0 h and 48 h, mean±SEM, n=3; for inhibition of neutrophils recruitment into the inflamed corneas: at 24 and 72 h, compared to vehicle-treated group, p<0.05
Protocol: (§4) Six to eight-week-old male BALB/c (Taconic Farms, Germantown, N.Y.) mice were used in all experiments. All experimental protocols were approved by the Schepens Eye Research Institute Animal Care and Use Committee, and all animals were treated according to the Association for Research in Vision and Ophthalmology Statement for the Use of Animals in Ophthalmic and Vision Research.
(§5) The standard model for induction of inflammatory corneal NV is associated with development of intrastromal vessels in close association with a mixed-cell (primarily neutrophilic) infiltrate.^14,15 Three interrupted sutures (11-0 nylon, Sharpoint; Vanguard, Houston, Tex.) were placed intrastromally with two stromal incursions extending over 120° of the corneal circumference each to induce inflammatory corneal NV, which is also associated with significant LA, as described previously.^14 The corneas were followed by slit-lamp biomicroscopy for corneal NV development. NV was graded between 0 and 3, with increments of 0.5, using a grid system per each corneal quadrant based on the centripetal extent of the neovascular branches from the limbus. Scores for each quadrant then summed to derive the NV index (range 0 to 12) for each eye, as previously described.^14
(§6) BALB/c mice were randomized to receive RvD1, RvE1 or vehicle (normal saline) by subconjunctival injection in a masked fashion after suture or hydron pellet placement. The compounds were administered at a dose of 100 ng/10 μl per mouse every 48 h after suture or pellet placed. For these experiments, RvD1 and RvE1 were prepared by total organic synthesis as reported previously,^17,18 in the total organic synthesis core for NIH P-50 DE0169191. The physical properties were monitored routinely via LC/MS/MS matching the reported biological and physical properties prior to analysis in present experiments.
(§7) Full thickness corneal tissue or 8 μm-frozen sections were fixed in acetone for 15 minutes at room temperature. To block non-specific staining, anti-FcR mAb ([…], FcγIII/II receptor) or 10% goat serum was used before primary antibodies or isotype-matched control antibodies were applied at 4° C. overnight. Thereafter, samples were incubated with secondary antibodies at RT. Each step was followed by three thorough washings in PBS for 5-10 minutes. Finally, the samples were covered with mounting medium (Vector Laboratories, Burlingame, Calif.) and analyzed by epifluorescence microscopy (Eclipse E800; Nikon, Tokyo, Japan). The following antibodies were used: FITC-conjugated rat anti-mouse CD31 (Santa Cruz Biotechnology, Santa Cruz, Calif.), purified rat anti-mouse neutrophil (NIMP-R14, Abcam, Cambridge, Mass.), purified rat anti-mouse F4/80 (Novus Biologicals, Littleton, Colo.) and purified rabbit anti-mouse LYVE-1 (Abcam, Cambridge, Mass.). The secondary antibodies were Rodamine-conjugated donkey anti-rabbit IgG and Rodamine-conjugated goat anti-rat IgG (Santa Cruz Biotechnology, Santa Cruz, Calif.). Isotype controls included FITC-conjugated rat IgG2a, purified rat IgG2b, and purified rabbit IgG (Santa Cruz Biotechnology, Santa Cruz, Calif.).

[6] = system: IL-1β-induced corneal HA and LA; test: Corneal micropocket assay, IL-1β pellet; type: in vivo, BALB/c mice; conditions: day 7; for BV density: IL-1β micropellet, mean±SEM, n=4, vehicle 26.8±2.0%, significantly impaired; for reduction of LA: stimulated by IL-1β micropellet
Protocol: as §4
(§8) The corneal micropocket assay in mice and quantification of the resultant NV has been described previously.^16,17 In brief, 0.3 μl of hydron pellets (IFN Sciences, New Brunswick, N.J.) containing 30 ng of murine IL-1β (R&D Systems, Minneapolis, Minn.) or 200 ng of VEGF-A (gift from BRB Preclinical Repository, National Cancer Institute) were prepared and implanted into the corneal stroma of male BALB/c mice. After 7 days the animals were sacrificed and the corneas were harvested for quantitative analysis of HA and LA.
as §6
(§9) Full thickness corneal tissue or 8 μm-frozen sections were fixed in acetone for 15 minutes at room temperature. To block non-specific staining, anti-FcR mAb ([…], FcγIII/II receptor) or 10% goat serum was used before primary antibodies or isotype-matched control antibodies were applied at 4° C. overnight. Thereafter, samples were incubated with secondary antibodies at RT. Each step was followed by three thorough washings in PBS for 5-10 minutes. Finally, the samples were covered with mounting medium (Vector Laboratories, Burlingame, Calif.) and analyzed by epifluorescence microscopy (Eclipse E800; Nikon, Tokyo, Japan). […]
(§10) To quantify corneal angiogenesis, digital pictures of corneal flat-mounts were taken using an image analysis system (Spot Image Analysis, Diagnostic Instruments, Sterling Heights, Mich.). The areas covered by CD31^high/LYVE-1^−-vessels (blood vessels) or CD31^lowLYVE-1^high vessels (lymphatics) were measured morphometrically using NIH Image J software (version 1.34s; http://rsb.info.nih.gov/ij). […] The vessel density was calculated by the proportion of neovascularized area to the whole corneal area.

[7] = system: IL-1α; test: Real-time PCR of IL-1α mRNA in suture-inflamed corneas; type: in vivo, BALB/c mice; conditions: 24 h and 72 h after suture placement, vs vehicle
Protocol: as §1, §2, §3

[8] = system: VEGF-D; test: Real-time PCR of VEGF-D mRNA in suture-inflamed corneas; type: in vivo, BALB/c mice; conditions: relative to vehicle-treated controls
Protocol: as §1, §2, §3

[9] = system: macrophages; test: Macrophage infiltration in suture-inflamed corneas (anti-F4/80 staining of cross-sections); type: in vivo, BALB/c mice; conditions: 72 h after suture placement; 100 ng/10 μl subconjunctival; mean±SEM, n=3; vehicle 83±3
Protocol: as §1
BALB/c mice were randomized to receive RvD1, RvE1 or vehicle (normal saline) by subconjunctival injection in a masked fashion after suture or hydron pellet placement. […] The physical properties were monitored routinely via LC/MS/MS matching the reported biological and physical properties prior to analysis in present experiments.
Full thickness corneal tissue or 8 μm-frozen sections were fixed in acetone for 15 minutes at room temperature. […] Finally, the samples were covered with mounting medium (Vector Laboratories, Burlingame, Calif.) and analyzed by epifluorescence microscopy (Eclipse E800; Nikon, Tokyo, Japan). […]

[10] = system: suture-induced corneal NV; test: Suture-induced inflammatory corneal angiogenesis (slit-lamp NV score, CD31/LYVE-1 vessel density); type: in vivo, BALB/c mice; conditions: for angiogenic response (corneal neovessels by slit lamp biomicroscopy): 2-week time course, subconjunctival every 48 h, relative to vehicle control; for significant changes in the density of lymphatic vessels / BV density (CD31high/LYVE-1−): day 14 after suture placement; for significant changes in the density of lymphatic vessels: relative to vehicle controls; for BV density (CD31high/LYVE-1−): mean±SEM, n=6, vehicle 23.18±1.12%
Protocol: as §4, §5, §6, §7
To quantify corneal angiogenesis, digital pictures of corneal flat-mounts were taken using an image analysis system (Spot Image Analysis, Diagnostic Instruments, Sterling Heights, Mich.). The areas covered by CD31^high/LYVE-1^−-vessels (blood vessels) or CD31^lowLYVE-1^high vessels (lymphatics) were measured morphometrically using NIH Image J software (version 1.34s; http://rsb.info.nih.gov/ij). The total corneal area was outlined using the inner-most vessel of the limbal arcade as the border. The vessel density was calculated by the proportion of neovascularized area to the whole corneal area.

[11] = system: VEGFR-3; test: Real-time PCR of VEGFR-3 mRNA in suture-inflamed corneas; type: in vivo, BALB/c mice; conditions: relative to vehicle-treated controls
Protocol: as §1, §2, §3

[12] = system: VEGF-A-induced corneal HA and LA; test: Corneal micropocket assay, VEGF-A pellet; type: in vivo, BALB/c mice; conditions: day 7; for BV density: VEGF-A micropellet, mean±SEM, n=4, vehicle 14.75±3.8%, not significantly lower; for reduction of LA: stimulated by VEGF-A micropellet
Protocol: as §4, §8, §6, §9, §10

[13] = system: TNF-α; test: Real-time PCR of TNF-α mRNA in suture-inflamed corneas; type: in vivo, BALB/c mice; conditions: vs vehicle
Protocol: as §4, §5, §6
Corneas were carefully dissected to ensure that the conjunctival and iris tissues were not included. To extract mRNA from whole-thickness corneas, two corneas were pooled as a sample in each group. To extract mRNA from corneal epithelial and stroma-endothelial layers separately, intact corneas were placed in 30 μl of RNA stabilization reagent (RNAlater, Qiagen, Valencia, Calif.) at 4° C. overnight and then stored at −30° C. for 2-3 days. […]
as §3

[14] = 24 h after suture placement, vehicle 81±6
[15] = 72 h after suture placement, vehicle 57±4

Row | Structure (SMILES) | mRNA expression of VEGF-C [2] | mRNA expression of VEGF-A [3] | mRNA expression of VEGFR-2 [4] | neutrophils in inflamed cornea [5, 14] [cells/section] | neutrophils in inflamed cornea [5, 15] [cells/section] | inhibition of neutrophils recruitment into the inflamed corneas [5] [%] | BV density [6] [%] | reduction of LA [6] | expression of IL-1α (mRNA) [7] | mRNA expression of VEGF-D [8] | macrophage in inflamed cornea [9] [cells/section] | angiogenic response (corneal neovessels by slit lamp biomicroscopy) [10] | significant changes in the density of lymphatic vessels [10] | BV density (CD31high/LYVE-1−) [10] [%] | mRNA expression of VEGFR-3 [11] | BV density [12] [%] | reduction of LA [12] | increases in TNF-α expression (mRNA) ([13]; 24 h after suture placement) | increases in TNF-α expression (mRNA) ([13]; 72 h after suture placement) | further results
1 | CCC(O)/C=C/C=C\C/C=C\C/C=C\C=C\[C@@H](O)CCCC(=O)O (mixture of isomers) [5S, 18 (+/−)-diHEPA] |  |  |  |  |  |  |  |  |  |  |  |  |  |  |  |  |  |  |  | anti-inflammatory activity, PMN infiltration [1]: downregulation of PMN infiltration; potency compared with Resolvin E1 ([1]; at an equal dose amount): equipotent to Resolvin E1
2 | CC/C=C\C[C@H](O)/C=C/C=C\C=C\C=C\[C@@H](O)[C@@H](O)C/C=C\CCC(=O)O [RvD1, 7S,8R,17S-trihydroxy-4Z,9E,11E,13Z,15E,19Z-docosahexaenoic acid] | lower mRNA expressions | lower mRNA expressions | lower mRNA expressions | 62±4 | 40±3 | ~30 | 17.1±2.4 | no significant reduction | not significantly altered | not significantly altered | 57±4 | significant suppression | not observed | 8.4±0.39 | not significantly altered | 10.9±2.3 | no significant reduction | significantly suppressed | not at 72 h | 
3 | CC[C@@H](O)/C=C/C=C\C[C@@H](O)/C=C/C=C/C=C\[C@@H](O)CCCC(=O)O [RvE1, 5S,12R,18R-trihydroxy-6Z,8E,10E,14Z,16E-EPA] | lower mRNA expressions | lower mRNA expressions | lower mRNA expressions | 52±4 | 41±4 | ~30 | 18.6±2.2 | no significant reduction | not significantly altered | not significantly altered | 49±7 | significant suppression | not observed | 10.92±0.53 | not significantly altered | 14.1±2.2 | no significant reduction | significantly suppressed | significant lowering | 
